In one assay the test system is HeLa. The assay is described as follows: Antiproliferative activity against human HeLa cells assessed as reduction in cell viability incubated for 72 hrs by MTT assay. It is filed as functional, cell-based. (Tetrazolium dyes change colour on reduction, which living cells bring about.)
Assay [1] relates to A549. As to the kind of experiment: cells. Conditions: Homo sapiens, A549, 72 h; call rule not given here.
Assay [2] concerns MCF7. As to the kind of experiment: cells. The settings on record: Homo sapiens, MCF7, 72 h.
Assay [3] has as its system A549.
Assay [4] concerns A549. The assay is described as follows: Induction of apoptosis in human A549 cells assessed as viable cells at 5 uM measured after 24 hrs by AnnexinV-FITC/PI staining based flow cytometry (reference value: 93.25%). The format is functional. The settings on record: read-out: Activity.
In assay [5] the test system is A549. As to the kind of experiment: Induction of apoptosis in human A549 cells assessed as early apoptotic cells at 5 uM measured after 24 hrs by AnnexinV-FITC/PI staining based flow cytometry (reference value: 1.26%). The format is functional.
Assay [6] has as its system A549. The assay is described as follows: Induction of apoptosis in human A549 cells assessed as late apoptotic cells at 5 uM measured after 24 hrs by AnnexinV-FITC/PI staining based flow cytometry (reference value: 1.47%). It is filed as functional. (A flow cytometer gives signals particle by particle.)
Assay [7] concerns A549. As to the kind of experiment: Induction of apoptosis in human A549 cells assessed as necrotic cells at 5 uM measured after 24 hrs by AnnexinV-FITC/PI staining based flow cytometry (reference value: 4.01%). It is filed as functional.
In assay [8] the test system is A549. As to the kind of experiment: Induction of cell cycle arrest in human A549 cells assessed as accumulation of cells at G1 phase at 5 uM incubated for 24 hrs by propidium iodide staining based flow cytometry (reference value: 54.46%). It is filed as functional.
Assay [9] concerns A549. The assay is described as follows: Induction of cell cycle arrest in human A549 cells assessed as accumulation of cells at G2 phase at 5 uM incubated for 24 hrs by propidium iodide staining based flow cytometry (reference value: 7.36%). It is filed as functional.
The test system of assay [10] is A549. As to the kind of experiment: Induction of cell cycle arrest in human A549 cells assessed as accumulation of cells at S phase at 5 uM incubated for 24 hrs by propidium iodide staining based flow cytometry (reference value: 38.18%). It is filed as functional.
The test system of assay [11] is MCF7.
[12] abbreviates: Homo sapiens, HeLa, 72 h, read-out: IC50.

IC50, viability and Activity data for 36 compounds are collected here from ChEMBL document CHEMBL5620360, “Design, synthesis and biological evaluation of 4-(4-aminophenoxy)picolinamide derivatives as potential antitumor agents” (Eur J Med Chem, 2023).

The structures appear in SMILES notation.

In the case of `CCCNC(=O)c1cc(Oc2ccc(NC(=O)c3cn(-c4ccccc4)c4ncccc4c3=O)cc2F)ccn1`, the results for the IC50 in the assay with HeLa (setting [12]), in the assay on A549 [1] and in the assay with MCF7 [2] were 75 µM, 67.2 µM and 74 µM, respectively.

Regarding `CCCNC(=O)c1cc(Oc2ccc(NC(=O)c3cn(-c4ccc(Br)cc4F)c4ncccc4c3=O)cc2F)ccn1`, the IC50 (in general, the point on the concentration scale where inhibition reaches its midpoint) with HeLa (setting [12]) worked out at 41.8 µM; with A549 [1] it was 18.7 µM; in the assay on MCF7 [2], 17.3 µM.

Consider `O=C(Nc1ccc(Oc2ccnc(C(=O)N3CCCC3)c2)cc1)c1cn(-c2ccccc2)c2ncccc2c1=O`, for which the IC50 stood at 41.2 µM with HeLa (setting [12]), 47.6 µM in the assay with A549 [1] and 38.1 µM in the assay with MCF7 [2].

Take `O=C(NCCCN1CCOCC1)c1cc(Oc2ccc(NC(=O)c3cn(-c4ccc(Br)cc4F)c4ncccc4c3=O)cc2)ccn1`: the IC50 turned out to be 7.96 µM with HeLa (setting [12]), 9.27 µM in the assay with A549 [1] and 0.83 µM in the assay with MCF7 [2].

Consider `O=C(Nc1ccc(Oc2ccnc(C(=O)N3CCCC3)c2)c(F)c1)c1cn(-c2ccc(Br)cc2)c2ncccc2c1=O`, for which the IC50 was 42.3 µM in the assay with HeLa (setting [12]), “Not Active” in the assay with A549 [3] and 44.3 µM with MCF7 [2].

As for `O=C(NCCCN1CCOCC1)c1cc(Oc2ccc(NC(=O)c3cn(-c4ccc(Br)cc4F)c4ncccc4c3=O)cc2F)ccn1`, the figures for the IC50 in the assay on HeLa (setting [12]), in the assay on A549 [1] and in the assay with MCF7 [2] were 1.85 µM, 1.18 µM and 3.51 µM, respectively.

As for `COc1ccc(-n2cc(C(=O)Nc3ccc(Oc4ccnc(C(=O)NCCCN5CCOCC5)c4)cc3)c(=O)c3cccnc32)cc1`, the values for the IC50 in the assay on HeLa (setting [12]), with A549 [1] and in the assay on MCF7 [2] were 28.3 µM, 16.2 µM and 29.1 µM, respectively.

Consider `O=C(NCCCN1CCOCC1)c1cc(Oc2ccc(NC(=O)c3cn(-c4ccc(Br)cc4)c4ncccc4c3=O)cc2F)ccn1`, for which the IC50 in the assay on HeLa (setting [12]) is 4.57 µM; in the assay on A549 [1] it was 2.91 µM; in the assay with MCF7 [2], 4.87 µM.

Take `COc1ccc(-n2cc(C(=O)Nc3ccc(Oc4ccnc(C(=O)N5CCCC5)c4)cc3)c(=O)c3cccnc32)cc1`: the IC50 in the assay with HeLa (setting [12]) is 57 µM; with A549 [1], 33.6 µM; in the assay with MCF7 [2] it was 62.1 µM.

Take `O=C(Nc1ccc(Oc2ccnc(C(=O)N3CCCC3)c2)c(F)c1)c1cn(-c2ccccc2)c2ncccc2c1=O`: the figures for the IC50 in the assay on HeLa (setting [12]), in the assay with A549 [3] and in the assay on MCF7 [2] were 60.5 µM, “Not Active” and 69.4 µM, respectively.

As to `CCCNC(=O)c1cc(Oc2ccc(NC(=O)c3cn(-c4ccc(F)c(Cl)c4)c4ncccc4c3=O)cc2F)ccn1`, the IC50 with HeLa (setting [12]) was determined as 43.6 µM; with A549 [1] it was 34.8 µM; in the assay with MCF7 [2], 39 µM.

Consider `O=C(NCCCN1CCOCC1)c1cc(Oc2ccc(NC(=O)c3cn(-c4ccc(F)c(Cl)c4)c4ncccc4c3=O)cc2)ccn1`, for which the half-maximal inhibitory concentration (IC50) in the assay with HeLa (setting [12]) was determined as 39 µM; in the assay on A549 [1], 7.88 µM; with MCF7 [2], 43 µM.

As for `O=C(Nc1ccc(Oc2ccnc(C(=O)N3CCCC3)c2)cc1)c1cn(-c2ccc(Br)cc2F)c2ncccc2c1=O`, the IC50 entry in the assay with HeLa (hela) is “Not Active”; in the assay with A549 [1] it was 56.8 µM; in the assay with MCF7 [2], 78.5 µM.

As for `CCCNC(=O)c1cc(Oc2ccc(NC(=O)c3cn(-c4ccc(Cl)cc4)c4ncccc4c3=O)cc2F)ccn1`, the IC50 with HeLa (setting [12]) was 65.3 µM; in the assay with A549 [1], 45.1 µM; in the assay on MCF7 [2] it was 52.9 µM.

Consider `CCCNC(=O)c1cc(Oc2ccc(NC(=O)c3cn(-c4ccc(F)cc4)c4ncccc4c3=O)cc2)ccn1`, for which the IC50 in the assay on HeLa (setting [12]) was 1.09 µM; in the assay on A549 [1], 0.89 µM; in the assay with MCF7 [2], 3.01 µM.

Regarding `COc1cc2nccc(Oc3ccc(NC(=O)C4(C(=O)Nc5ccc(F)cc5)CC4)cc3)c2cc1OC` [CABOZANTINIB], the IC50 in the assay with HeLa (setting [12]) amounted to 1.17 µM; with A549 [1], 0.62 µM; in the assay on MCF7 [2], 3.15 µM. Also, the viability at 5 µM in the assay on A549 [4] came out at 88.2%. Moreover, the Activity amounted to 2.33% with A549 [5]; 4.25% in the assay with A549 [6]; 5.19% in the assay on A549 [7]; 56.19% in the assay on A549 [8]; 11.66% in the assay with A549 [9]; 32.15% in the assay with A549 [10].

As to `O=C(Nc1ccc(Oc2ccnc(C(=O)N3CCCC3)c2)c(F)c1)c1cn(-c2ccc(Br)cc2F)c2ncccc2c1=O`, the IC50 with HeLa (setting [12]) is 50.8 µM; in the assay with A549 [3] it was “Not Active”; in the assay on MCF7 [11], “Not Active”.

For `CCCNC(=O)c1cc(Oc2ccc(NC(=O)c3cn(-c4ccc(Br)cc4F)c4ncccc4c3=O)cc2)ccn1`, the IC50 in the assay with HeLa (setting [12]) was 80.5 µM; in the assay on A549 [3], “Not Active”; in the assay on MCF7 [11], “Not Active”.

Turning to `O=C(Nc1ccc(Oc2ccnc(C(=O)N3CCCC3)c2)cc1)c1cn(-c2ccc(Br)cc2)c2ncccc2c1=O`, the IC50 with HeLa (setting [12]) was 75.5 µM; with A549 [3] it was “Not Active”; in the assay with MCF7 [2] it was 62.1 µM.

`CCCNC(=O)c1cc(Oc2ccc(NC(=O)c3cn(-c4ccc(Br)cc4)c4ncccc4c3=O)cc2F)ccn1`: the IC50 was 35.9 µM in the assay with HeLa (setting [12]), 8.01 µM with A549 [1] and 10.4 µM with MCF7 [2].

As to `O=C(Nc1ccc(Oc2ccnc(C(=O)N3CCCC3)c2)cc1)c1cn(-c2ccc(Cl)cc2)c2ncccc2c1=O`, the results for the IC50 with HeLa (setting [12]), with A549 [1] and in the assay with MCF7 [2] were 67 µM, 57.1 µM and 69.8 µM, respectively.

As for `O=C(NCCCN1CCOCC1)c1cc(Oc2ccc(NC(=O)c3cn(-c4ccc(F)cc4)c4ncccc4c3=O)cc2F)ccn1`, the concentration for half-maximal inhibition (IC50) is 1.57 µM in the assay on HeLa (setting [12]), 0.58 µM in the assay on A549 [1] and 4.96 µM with MCF7 [2].

On to `O=C(NCCCN1CCOCC1)c1cc(Oc2ccc(NC(=O)c3cn(-c4ccc(F)cc4)c4ncccc4c3=O)cc2)ccn1`, for which the 50% inhibitory concentration (IC50) in the assay with HeLa (setting [12]) was found to be 7.92 µM; in the assay with A549 [1], 4.18 µM; with MCF7 [2] it was 5.75 µM.

`O=C(Nc1ccc(Oc2ccnc(C(=O)N3CCCC3)c2)c(F)c1)c1cn(-c2ccc(Cl)cc2)c2ncccc2c1=O`: the IC50 with HeLa (setting [12]) worked out at 75.4 µM; in the assay with A549 [1], 79.3 µM; with MCF7 [2], 82.1 µM.

With `O=C(NCCCN1CCOCC1)c1cc(Oc2ccc(NC(=O)c3cn(-c4ccc(Cl)cc4)c4ncccc4c3=O)cc2F)ccn1`, the values for the half-maximal inhibitory concentration (IC50) in the assay with HeLa (setting [12]), in the assay with A549 [1] and in the assay with MCF7 [2] were 29.4 µM, 3.87 µM and 39.3 µM, respectively.

For the compound `COc1ccc(-n2cc(C(=O)Nc3ccc(Oc4ccnc(C(=O)NCCCN5CCOCC5)c4)c(F)c3)c(=O)c3cccnc32)cc1`, the IC50 was 17.4 µM in the assay with HeLa (setting [12]), 19.3 µM in the assay with A549 [1] and 30.8 µM in the assay with MCF7 [2].

Regarding `O=C(NCCCN1CCOCC1)c1cc(Oc2ccc(NC(=O)c3cn(-c4ccc(Br)cc4)c4ncccc4c3=O)cc2)ccn1`, the IC50 is 9.76 µM in the assay with HeLa (setting [12]), 0.74 µM with A549 [1] and 11 µM in the assay on MCF7 [2].

As to `COc1ccc(-n2cc(C(=O)Nc3ccc(Oc4ccnc(C(=O)N5CCCC5)c4)c(F)c3)c(=O)c3cccnc32)cc1`, the IC50 entry is “Not Active” in the assay with HeLa (hela), “Not Active” with A549 [3] and 77 µM in the assay on MCF7 [2].

Regarding `CCCNC(=O)c1cc(Oc2ccc(NC(=O)c3cn(-c4ccc(OC)cc4)c4ncccc4c3=O)cc2F)ccn1`, the results for the IC50 in the assay on HeLa (setting [12]), in the assay with A549 [1] and in the assay with MCF7 [2] were 67.5 µM, 51.1 µM and 71.3 µM, respectively.

In the case of `CCCNC(=O)c1cc(Oc2ccc(NC(=O)c3cn(-c4ccc(OC)cc4)c4ncccc4c3=O)cc2)ccn1`, the IC50 in the assay with HeLa (setting [12]) stood at 2.01 µM; with A549 [1] it was 0.96 µM; with MCF7 [2], 2.86 µM.

`O=C(Nc1ccc(Oc2ccnc(C(=O)N3CCCC3)c2)c(F)c1)c1cn(-c2ccc(F)cc2)c2ncccc2c1=O`: the IC50 in the assay on HeLa (setting [12]) worked out at 2.13 µM; in the assay with A549 [1] it was 1.62 µM; in the assay with MCF7 [2] it was 2.98 µM.

Take `CCCNC(=O)c1cc(Oc2ccc(NC(=O)c3cn(-c4ccc(F)cc4)c4ncccc4c3=O)cc2F)ccn1`: the IC50 with HeLa (setting [12]) stood at 23.8 µM; in the assay on A549 [1], 19.3 µM; with MCF7 [2], 40.7 µM.

As for `O=C(Nc1ccc(Oc2ccnc(C(=O)N3CCCC3)c2)c(F)c1)c1cn(-c2ccc(F)c(Cl)c2)c2ncccc2c1=O`, the IC50 with HeLa (setting [12]) worked out at 1.28 µM; with A549 [1], 0.98 µM; with MCF7 [2], 2.96 µM.

Turning to `O=C(Nc1ccc(Oc2ccnc(C(=O)N3CCCC3)c2)cc1)c1cn(-c2ccc(F)cc2)c2ncccc2c1=O`, the IC50 was found to be 5.28 µM with HeLa (setting [12]), 3.47 µM with A549 [1] and 15 µM in the assay on MCF7 [2].

As for `CCCNC(=O)c1cc(Oc2ccc(NC(=O)c3cn(-c4ccc(Br)cc4)c4ncccc4c3=O)cc2)ccn1`, the values for the IC50 in the assay with HeLa (setting [12]), with A549 [3] and in the assay on MCF7 [2] were 65.9 µM, “Not Active” and 73.9 µM, respectively.

`O=C(NCCCN1CCOCC1)c1cc(Oc2ccc(NC(=O)c3cn(-c4ccccc4)c4ncccc4c3=O)cc2F)ccn1`: the IC50 in the assay on HeLa (setting [12]) was 7.02 µM; with A549 [1] it was 9.57 µM; with MCF7 [2], 23.7 µM.
